Measured values published in patent publication US20160067314A1, “COMPOSITIONS AND METHODS FOR INHIBITING CHEMORESISTANCE IN CANCER AND IMPROVING RESPONSE TO THERAPY” (UNIVERSITY OF VIRGINIA PATENT FOUNDATION, priority 2013, published 2016).

Legend:
[1] = system: A208 cells; experiment: Ara-C concentration killing ~85% of adherent cells (preliminary experiments); assay type: cell-based, human; conditions: Ara-C for 3 days
From the text: (§1) FIG. 1. ALCAM correlates with detachment-induced therapy resistance. Relative ALCAM expression levels in melanoma measured by (A) microarray analysis and (B) RT-PCR. Expression levels are normalized to M21. Values are means±SE. (C) Relative ALCAM expression versus cell survival in additional melanoma cell lines. The graph represents detachment-induced resistance (“delta”) as the fold difference in survival between suspended versus adherent cells. Survival of adherent and suspended cells after treatment with chemotherapy (Ara-C) for 3 days was determined by replating on fibronectin. Concentrations of Ara-C were chosen for each cell line to kill ˜85% of adherent cells as determined in preliminary experiments. Concentrations were: A208 cells, 0.5 μM; A375.S2 cells, 0.3 μM; RPMI7951 cells, 5 μM, FM3: 10 μM). (D) Delta was plotted against ALCAM message level determined by RT-PCR. Values are means±SE, n>3.
(§2) The human melanoma cell lines; M21, VMM12, VMM15, VMM1, VMM5A, VMM18 were cultured as described [Molhoek, 2008; Schwartz, 2008]. RPMI7951, A208, and A375.S2 were cultured in DMEM/F12 medium supplemented with 5% heat inactivated fetal bovine serum, 15 mM HEPES and penicillin-streptomycin. FM3 cells were grown in DMEM supplemented with 10% fetal bovine serum and penicillin-streptomycin. Cell survival assays and colony assay were performed as described before [Schwartz, 2008].

[2] = system: A375.S2 cells; experiment: as above; assay type: cell-based, human; conditions: Ara-C for 3 days
From the text: as §1, §2

[3] = system: FM3; experiment: as above; assay type: cell-based, human; conditions: Ara-C for 3 days
From the text: as §1, §2

[4] = system: RPMI7951 cells; experiment: as above; assay type: cell-based, human; conditions: Ara-C for 3 days
From the text: as §1, §2

[5] = system: M21 melanoma cells; experiment: Short term survival assay after chemotherapy, adherent or suspended cells; assay type: cell-based, human; conditions: M21, siRNA transfected, 10 μM Ara-C, 3 days
Method: (§3) FIG. 2. ALCAM mediates detachment-induced therapy resistance. (A) ALCAM expression by RT-PCR in M21 melanoma cells after transfection with indicated siRNAs. Values are means±SE. (B) Proliferation of M21 cells expressing either ALCAM or control siRNA. 5×10^5 cells were plated and after 72 h counted. Values are means±SD, (C) Short term survival assays—cells transfected with the indicated siRNAs were treated with chemotherapy (M21:10 μM Ara-C; VMM12:10 μM cisplatin) while adherent (Ad) or suspended (Sus). Cell survival was assayed after 3 days. Values are means±SE, n>3. (D) Adherent or suspended M21 cells were treated with 10 μM Ara-C, then washed and re-plated, and colonies counted after 10 days. Values are means±SD, n=3. **P<0.01, *P<0.05
(§4) We next asked whether ALCAM might play a causal role in chemoresistance induced by loss of integrin-mediated cell adhesion. We therefore designed and tested several siRNA sequences. […] We next examined chemosensitivity in adherent and suspended M21 and VMM12 melanoma lines. Cells transfected with two distinct ALCAM siRNAs (#10 or #11), or control siRNA, were treated with chemotherapy for 3 days, then survival assayed by re-plating on fibronectin. […] Control siRNA had no effect in either condition.
(§5) ALCAM can mediate homophilic adhesion, as well as heterophilic adhesion to CD6, both of which are blocked by a monoclonal antibody, AZN-L50 (van Kempen J Biol Chem. 2001; 276:25783-90; Zimmerman Blood. 2006; 107:3212-20). […] M21 and VMM12 cells were subject to chemotherapy for 72 h while adherent or suspended, in the presence or absence of AZN-L50. Survival was then assayed as before.
as §2

[6] = system: VMM12 melanoma cells; experiment: as above; assay type: cell-based, human; conditions: VMM12, siRNA transfected, 10 μM cisplatin, 3 days
Method: as §3, §4, §5, §2

[7] = system: human melanoma; conditions: mouse xenografts of human melanoma, previous report [7]; cited from earlier work
[8] = system: focal adhesion kinase and p130cas; conditions: observed at nM concentrations; cited from earlier work
[9] = system: integrin signaling; experiment: Tyrosine phosphorylation in suspended cells, Western blot with pY20; assay type: cell-based; conditions: suspended M21 melanoma or mouse 3T3 cells, FN-COMP 40 μg/ml
Method: FIG. 2, Example 2—FN-COMP stimulates signaling in vitro. Either M21 melanoma or mouse 3T3 cells were left adherent (Ad) or detached and kept in suspension (sus) for 1 h. Suspended cells were either treated with of FN-COMP at 40 μg/ml for indicated times or left untreated. Lysates were analyzed by Western blotting using antiphosphotyrosine antibody pY20. Tubulin was used as a loading control. n=2.
Cells were lysed as previously described. Proteins were separated on SDS-PAGE gels, transferred, blocked, and probed with the indicated primary antibodies. Blots were washed, incubated with secondary antibodies and developed using ECL reagents (Pierce) and film (Kodak). FN-COMP under reducing and non-reducing condition was loaded on SDSPAGE gels and was subjected electrophoresis. Gels were stained with Coomassie Blue to visualize the bands.

[10] = system: M21 melanoma cells; experiment: Cell survival of non-adherent cells after FN-COMP and X-irradiation; assay type: cell-based, human; conditions: M21 suspended, FN-COMP 40 μg/ml 30-45 min, then 10 Gy X-irradiation, survival 72 h later
Method: (§6) (A) M21, (B) VMM12 or (C) VMM18 melanoma cells were left adherent (Ad) or detached and kept in suspension (Sus) for 1 h. Suspended cells were then treated with of FN-COMP (FNC) at 40 μg/ml for 30-45 min followed by treatment with either 10 Gy X-irradiation (A) or Ara-C at 10 μM (B and C). Cell survival was assayed 72 h later. Values are means } SE, n=3. *P<0.05.
(§7) The human melanoma cell lines; M21, VMM12, VMM18 were cultured as described. Cell survival assays and colony assay were performed as described. Cells were irradiated using an X-ray irradiator at a dose rate of 3.3 Gy/min.

[11] = system: VMM12 melanoma cells; experiment: Cell survival of non-adherent cells after FN-COMP and Ara-C; assay type: cell-based, human; conditions: VMM12 suspended, FN-COMP 40 μg/ml 30-45 min, then Ara-C 10 μM, survival 72 h later
Method: as §6, §7

[12] = system: VMM18 melanoma cells; experiment: as above; assay type: cell-based, human; conditions: VMM18 suspended, FN-COMP 40 μg/ml 30-45 min, then Ara-C 10 μM, survival 72 h later
Method: as §6, §7

[13] = FN-COMP levels in blood after intraperitoneal injection, plasma Western blot for fibronectin; assay type: in vivo; conditions: SCID mice, 500 μg/mouse i.p.
Method: (§8) FIG. 4, Example 2—FN-COMP in chemotherapy in vivo. (A) SCID mice were injected with 500 μg of FN-COMP. At the indicated times, plasma was analyzed by western blotting for fibronectin (FN). (B) Mice with palpable subcutaneous tumors were treated with cisplatin (CD), FN-COMP (FNC) alone, or CD plus FNC. Mice received 3 successive treatments 1 week apart. Tumor volumes were then followed. Values are means±SE, n=10-15 mice. For CD vs. CD+FNC: *P<0.0031. The error bars are asymmetric because the analysis was done in the log-scale, and then converted back to the original scale. Qualitatively similar results were obtained in 2 independent experiments.
(§9) Tumor generation in 6-8 wk old male SCID mice (Charles River Laboratories) and tumor measurement were done as described. When tumors were first palpable, mice were injected intraperitoneally (i.p.) with cisplatin (8 mg/kg: first week and 3.5 mg/kg: second and third weeks), FN-COMP (500 μg/mouse) or both for 3 consecutive weeks. The tumor volumes were recorded weekly. To assay levels in the blood, SCID mice with no tumors were injected intraperitoneally with FN-COMP (500 μg/mouse). Blood was collected at 0, 3, 6, or 24 h post injection. Plasma was subjected to Western blotting with the indicated antibodies. All animal procedures were done according to our institutional Animal Care and Use Committee guidelines.

[14] = system: subcutaneous M21 tumors; experiment: Mouse tumor growth, subcutaneous M21 tumors, FN-COMP and/or cisplatin; assay type: in vivo; conditions: SCID mice; for Tumor growth / tumor size: s.c. M21 tumors, i.p., three treatments ~1 week apart, cisplatin 8 then 3.5 mg/kg, FN-COMP 500 μg/mouse
Method: as §8, §9
Statistical analyses were done as described. Briefly, repeated measures models were used to compare tumor growth in control, cisplatin alone, FN-COMP alone and cisplatin+FN-COMP groups. These models account for the correlations among measurements taken from the same animal over time. We used linear models for the log-transformed tumor growth and the assumption that the correlation between measurements decreases with the amount of time between the measurements. F-tests based on contrasts were used to make specific comparisons between groups. All analyses were carried out in SAS 9.2 and GAUSS 10.0.

[15] = system: subcutaneous M21 tumors; experiment: Mouse tumor growth, subcutaneous M21 tumors, AZN-L50 and/or cisplatin; assay type: in vivo; conditions: SCID mice, s.c. M21 tumors, i.p., two treatments ~1 week apart; cisplatin 8 then 3.5 mg/kg, AZN-L50 100 μg/mouse
Method: (A) Mice with palpable subcutaneous tumors were treated with cisplatin alone (CD), AZN-L50 (AZN) alone, or CD plus AZN-L50 (AZN+CD). Mice received 2 treatments 1 week apart. Tumor volume was then followed. Values are means±SE; n=8-11 mice.
Tumor generation and measurement was done as described [Schwartz, 2008]. Briefly male SCID mice (Charles River) were injected s.c. with 100,000 M21 cells. When tumors were first palpable, mice were injected I.P with cisplatin (8 mg/kg: first week and 3.5 mg/kg: second week), AZN-L50 (100 μg/mouse) or both for 2 consecutive weeks. The tumor volumes were recorded weekly.
All statistical analyses were done as described [Schwartz, 2008]. Briefly repeated measures models were used to compare tumor growth in control, cisplatin alone, AZN-L50 alone and cisplatin+AZN-L50 groups. These models account for the correlations among measurements taken from the same animal over time. We used linear models for the log-transformed tumor growth and the assumption that the correlation between measurements decreases with the amount of time between the measurements. F-tests based on contrasts were used to make specific comparisons between groups. All analyses were carried out in SAS 9.2 and GAUSS 10.0.

Nc1ccn([C@@H]2O[C@H](CO)[C@@H](O)[C@@H]2O)c(=O)n1 [Ara-C, 1-β-D-arabinofuranosylcytosine]
Concentration of Ara-C chosen to kill ˜85% of adherent cells [1]: 0.5 µM
Concentration of Ara-C chosen to kill ˜85% of adherent cells [2]: 0.3 µM
Concentration of Ara-C chosen to kill ˜85% of adherent cells [3]: 10 µM
Concentration of Ara-C chosen to kill ˜85% of adherent cells [4]: 5 µM

ALCAM siRNA #11: siRNA that targets ALCAM, 5′-CACCTGCTCGGTGACATATTA-3′ (SEQ ID NO:4), described before [Hong, 2010] (other strand not cited, further chemistry not given here)
Cell survival, adherent cells [5]: no effect
Cell survival, suspended cells [5]: drastically reduced cell survival
Cell survival, adherent cells [6]: no effect
Cell survival, suspended cells [6]: drastically reduced cell survival

contortrostatin
Therapeutic responses when combined with chemotherapy [7]: improved therapeutic responses
Tyrosine phosphorylation of integrin targets [8]: strongly increased

FN-COMP: homo-pentameric construct of fibronectin peptides (type III repeats 5-11) linked by the assembly domain of COMP (amino acid residues 27-84)
Tyrosine phosphorylation (characteristic of integrin signaling) [9]: increased tyrosine phosphorylation of bands around 60, 75 and 125 kD
Response to therapy (radiosensitivity) of non-adherent cells [10]: improved chemo and radiosensitivity
Response to therapy (chemosensitivity) of non-adherent cells [11]: improved chemo and radiosensitivity
Response to therapy (chemosensitivity) of non-adherent cells [12]: no effect
Stability in blood after injection [13]: at least 24 h
Time of appearance in the blood [13]: ≤ 3 h
Side effects in the mice ([14]; 3 weekly i.p. treatments): not observed
Tumor growth / tumor size [14]: Neither FN-COMP alone nor cisplatin alone had significant effects on tumor growth

ALCAM siRNA #10: siRNA that targets ALCAM, 5-GGAAACUAUGUCUGCGAAA-3 (SEQ ID NO:5) (listed as RNA, chemistry not given here)
Cell survival, adherent cells [5]: no effect
Cell survival, suspended cells [5]: drastically reduced cell survival
Cell survival, adherent cells [6]: no effect
Cell survival, suspended cells [6]: drastically reduced cell survival

N.N.[Cl][Pt][Cl] [cisplatin, cis-Dichlorodiamine platinum(II)]
Tumor growth / tumor size [15]: Neither AZN-L50 alone nor cisplatin alone had significant effects on tumor growth
Tumor growth / tumor size [14]: Neither FN-COMP alone nor cisplatin alone had significant effects on tumor growth
